Test results published in patent US8372872B2, “Methods for concomitant treatment of theophylline and febuxostat” (Takeda Pharmaceuticals U.S.A., Inc., priority 2010, dated 2013).

Legend:
[1] = adults; cited from earlier work
clinical = conditions: both, human, in vivo, po
[2] = patients co-administered allopurinol and theophylline; cited from earlier work
[3] = febuxostat vs placebo regimen, in words

SMILES: Cn1c(=O)c2[nH]cnc2n(C)c1=O [Theophylline, 1,3-dimethyl-7H-purine-2,6-dione]
- point estimates for theophylline Cmax, AUC(0-tlqc) and AUC(0-inf) (both, human, in vivo): ~100%
- estimated mean T1/2, CL/F and Vz/F of theophylline, compared between regimens [3]: generally similar
- mean AUC(0-inf) of theophylline, compared between regimens [3]: comparable
- biological half-life [1]: about 6 hours
- Tmax (clinical): 7 to 9 h
- Vd/F (clinical): 58.2 L
- half-life (clinical): 581 min

SMILES: Cc1nc(-c2ccc(OCC(C)C)c(C#N)c2)sc1C(=O)O [Febuxostat]
- maximum observed theophylline concentration (Cmax) and exposure to theophylline (AUC), febuxostat vs placebo (in words): comparable

SMILES: Oc1ncnc2[nH]ncc12 [allopurinol]
- decrease of theophylline clearance [2]: 21%
- increase of theophylline AUC [2]: up to 27%
- increase of theophylline half-life [2]: approximately 25%
